# Source: paper PMC7407272, “Induction of Lysosome Membrane Permeabilization as a Therapeutic Strategy to Target Pancreatic Cancer Stem Cells” (Cancers, 2020)
# What was measured:
# PDAC2 cells = assay: CD133 flow cytometry; format: cell-based, human; details: 1.25 or 2.5 µM, 72 h
# Description: Cells were analyzed with a 4-laser Attune NxT Acoustic Cytometer (ThermoFisher Scientific). […] For lysosomes quantification, Acridine Orange (AO) (A1301, Thermo Fisher Scientific, Waltham, MA, USA) or Lysotracker Deep Red (DR) (L12492, Molecular probes, Life Technologies, Waltham, MA, USA) were used. AO fluorescence was assessed with two combinations of excitation and emission spectra: BL1 (Ex488/Em695/40, equal to the far-red channel (>670 nm)) and BL3 (Ex488/Em695/40, equal to the far-red channel (>670 nm)) Lysotracker DR fluorescence was assessed with RL1 (Ex638/Em670/14). […] For all assays, DAPI was used to mark and exclude dead cells, and data were analyzed using the software FlowJo v9.3 (Tree Star Inc., Ashland, OR, USA).
# Figure S3. […] Apoptosis was determined 72 h post treatment initiation. […]
# FLT1 = biological target: T1, FLT1 (Homo sapiens, UniProt P17948); assay: KINOMEscan; format: binding; details: read-out: % Ctrl
# T1 construct: purchased DiscoveRx KINOMEscan
# GAK = biological target: T2, GAK (Homo sapiens, UniProt O14976); assay: KINOMEscan; format: binding; details: read-out: % Ctrl
# T2 construct: purchased DiscoveRx KINOMEscan
# AURKB = biological target: T3, AURKB (Homo sapiens, UniProt Q96GD4); assay: KINOMEscan; format: binding; details: read-out: % Ctrl
# T3 construct: purchased DiscoveRx KINOMEscan
# PKNB(M.tuberculosis) = biological target: T4, PKNB(M.tuberculosis) (Mycobacterium tuberculosis, UniProt P9WI81); assay: KINOMEscan; format: binding; details: read-out: % Ctrl
# T4 construct: purchased DiscoveRx KINOMEscan
# PLK3 = biological target: T5, PLK3 (Homo sapiens, UniProt Q9H4B4); assay: KINOMEscan; format: binding; details: read-out: % Ctrl
# T5 construct: purchased DiscoveRx KINOMEscan
# BTK = biological target: T6, BTK (Homo sapiens, UniProt Q06187); assay: KINOMEscan; format: binding; details: read-out: % Ctrl
# T6 construct: purchased DiscoveRx KINOMEscan
# JAK3(JH1D.-cat.) = biological target: T7, JAK3(JH1D.-cat.) (Homo sapiens, UniProt P52333); assay: KINOMEscan; format: binding; details: read-out: % Ctrl
# T7 construct: JAK3(JH1D.-cat.); purchased DiscoveRx KINOMEscan
# CAMK2A = biological target: T8, CAMK2A (Homo sapiens, UniProt Q9UQM7); assay: KINOMEscan; format: binding; details: read-out: % Ctrl
# T8 construct: purchased DiscoveRx KINOMEscan
# RET = biological target: T9, RET (Homo sapiens, UniProt P07949); assay: KINOMEscan; format: binding; details: read-out: % Ctrl
# T9 construct: purchased DiscoveRx KINOMEscan
# CDK11 = biological target: T10, CDK11 (Homo sapiens, UniProt Q9BWU1); assay: KINOMEscan; format: binding; details: read-out: % Ctrl
# T10 construct: purchased DiscoveRx KINOMEscan
# ROS1 = biological target: T11, ROS1 (Homo sapiens, UniProt P08922); assay: KINOMEscan; format: binding; details: read-out: % Ctrl
# T11 construct: purchased DiscoveRx KINOMEscan
# CDK7 = biological target: T12, CDK7 (Homo sapiens, UniProt P50613); assay: KINOMEscan; format: binding; details: read-out: % Ctrl
# T12 construct: purchased DiscoveRx KINOMEscan
# RPS6KA5(KD2-C-t.) = biological target: T13, RPS6KA5(KD2-C-t.) (Homo sapiens, UniProt O75582); assay: KINOMEscan; format: binding; details: read-out: % Ctrl
# T13 construct: RPS6KA5(KD2-C-t.); purchased DiscoveRx KINOMEscan
# CDKL3 = biological target: T14, CDKL3 (Homo sapiens, UniProt Q8IVW4); assay: KINOMEscan; format: binding; details: read-out: % Ctrl
# T14 construct: purchased DiscoveRx KINOMEscan
# CDKL5 = biological target: T15, CDKL5 (Homo sapiens, UniProt O76039); assay: KINOMEscan; format: binding; details: read-out: % Ctrl
# T15 construct: purchased DiscoveRx KINOMEscan
# DAPK2 = biological target: T16, DAPK2 (Homo sapiens, UniProt Q9UIK4); assay: KINOMEscan; format: binding; details: read-out: % Ctrl
# T16 construct: purchased DiscoveRx KINOMEscan
# MST1 = biological target: T17, MST1 (Homo sapiens, UniProt Q13043); assay: KINOMEscan; format: binding; details: read-out: % Ctrl
# T17 construct: purchased DiscoveRx KINOMEscan
# MST3 = biological target: T18, MST3 (Homo sapiens, UniProt Q9Y6E0); assay: KINOMEscan; format: binding; details: read-out: % Ctrl
# T18 construct: purchased DiscoveRx KINOMEscan
# MYLK = biological target: T19, MYLK (Homo sapiens, UniProt Q15746); assay: KINOMEscan; format: binding; details: read-out: % Ctrl
# T19 construct: purchased DiscoveRx KINOMEscan
# TRKC = biological target: T20, TRKC (Homo sapiens, UniProt Q16288); assay: KINOMEscan; format: binding; details: read-out: % Ctrl
# T20 construct: purchased DiscoveRx KINOMEscan
# TTK = biological target: T21, TTK (Homo sapiens, UniProt P33981); assay: KINOMEscan; format: binding; details: read-out: % Ctrl
# T21 construct: purchased DiscoveRx KINOMEscan
# EPHA6 = biological target: T22, EPHA6 (Homo sapiens, UniProt Q9UF33); assay: KINOMEscan; format: binding; details: read-out: % Ctrl
# T22 construct: purchased DiscoveRx KINOMEscan
# NEK6 = biological target: T23, NEK6 (Homo sapiens, UniProt Q9HC98); assay: KINOMEscan; format: binding; details: read-out: % Ctrl
# T23 construct: purchased DiscoveRx KINOMEscan
# EPHB3 = biological target: T24, EPHB3 (Homo sapiens, UniProt P54753); assay: KINOMEscan; format: binding; details: read-out: % Ctrl
# T24 construct: purchased DiscoveRx KINOMEscan
# p38-beta = biological target: T25, p38-beta (Homo sapiens, UniProt Q15759); assay: KINOMEscan; format: binding; details: read-out: % Ctrl
# T25 construct: purchased DiscoveRx KINOMEscan
# PIM1 = PIM1 (Homo sapiens, UniProt P11309); assay: KINOMEscan; format: binding; parameters: purchased DiscoveRx KINOMEscan; details: read-out: % Ctrl
# Chain of PIM1 (P11309 whole entry): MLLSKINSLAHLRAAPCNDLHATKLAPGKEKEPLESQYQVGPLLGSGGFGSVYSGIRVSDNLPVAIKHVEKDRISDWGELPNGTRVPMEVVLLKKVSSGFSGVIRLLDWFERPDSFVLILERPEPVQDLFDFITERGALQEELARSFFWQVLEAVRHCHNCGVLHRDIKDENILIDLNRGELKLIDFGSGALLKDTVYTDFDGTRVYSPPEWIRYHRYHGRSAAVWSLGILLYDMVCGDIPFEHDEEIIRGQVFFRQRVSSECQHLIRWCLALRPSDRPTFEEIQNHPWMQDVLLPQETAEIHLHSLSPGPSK
# T1 sequence (P17948 27-1338): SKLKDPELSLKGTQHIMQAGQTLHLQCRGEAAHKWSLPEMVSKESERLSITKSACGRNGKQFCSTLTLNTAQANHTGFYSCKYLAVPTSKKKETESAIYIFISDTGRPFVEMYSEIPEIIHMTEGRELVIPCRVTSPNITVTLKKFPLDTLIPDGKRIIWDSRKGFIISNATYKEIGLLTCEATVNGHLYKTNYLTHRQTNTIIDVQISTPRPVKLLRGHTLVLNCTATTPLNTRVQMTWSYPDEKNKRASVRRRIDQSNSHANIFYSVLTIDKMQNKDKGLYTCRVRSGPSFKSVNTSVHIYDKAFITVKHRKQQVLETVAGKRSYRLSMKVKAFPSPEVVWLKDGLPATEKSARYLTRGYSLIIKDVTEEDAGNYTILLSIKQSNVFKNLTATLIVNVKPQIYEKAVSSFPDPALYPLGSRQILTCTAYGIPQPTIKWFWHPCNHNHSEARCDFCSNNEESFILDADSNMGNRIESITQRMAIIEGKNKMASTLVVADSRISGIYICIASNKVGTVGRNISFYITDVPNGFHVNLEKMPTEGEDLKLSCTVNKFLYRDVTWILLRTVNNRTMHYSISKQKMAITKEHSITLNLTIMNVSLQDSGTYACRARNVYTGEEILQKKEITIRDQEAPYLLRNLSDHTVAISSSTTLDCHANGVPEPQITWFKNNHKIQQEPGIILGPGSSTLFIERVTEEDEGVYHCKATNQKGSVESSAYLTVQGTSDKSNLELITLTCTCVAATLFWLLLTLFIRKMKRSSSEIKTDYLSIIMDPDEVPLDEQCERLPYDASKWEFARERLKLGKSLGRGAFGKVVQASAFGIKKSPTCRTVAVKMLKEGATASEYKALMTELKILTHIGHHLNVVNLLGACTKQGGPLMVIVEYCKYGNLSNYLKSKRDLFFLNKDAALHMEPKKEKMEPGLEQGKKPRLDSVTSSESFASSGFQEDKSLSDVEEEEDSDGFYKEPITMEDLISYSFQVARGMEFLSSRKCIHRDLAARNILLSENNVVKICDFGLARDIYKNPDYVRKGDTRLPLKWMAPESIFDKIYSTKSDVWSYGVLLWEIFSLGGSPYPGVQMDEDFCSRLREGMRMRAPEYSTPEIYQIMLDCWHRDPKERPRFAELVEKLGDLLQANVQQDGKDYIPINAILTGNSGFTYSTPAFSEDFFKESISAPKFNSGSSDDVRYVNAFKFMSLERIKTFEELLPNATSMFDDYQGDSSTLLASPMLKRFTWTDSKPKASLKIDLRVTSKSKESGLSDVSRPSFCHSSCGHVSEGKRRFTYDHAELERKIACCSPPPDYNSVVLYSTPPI
# T8 sequence (Q9UQM7 whole entry): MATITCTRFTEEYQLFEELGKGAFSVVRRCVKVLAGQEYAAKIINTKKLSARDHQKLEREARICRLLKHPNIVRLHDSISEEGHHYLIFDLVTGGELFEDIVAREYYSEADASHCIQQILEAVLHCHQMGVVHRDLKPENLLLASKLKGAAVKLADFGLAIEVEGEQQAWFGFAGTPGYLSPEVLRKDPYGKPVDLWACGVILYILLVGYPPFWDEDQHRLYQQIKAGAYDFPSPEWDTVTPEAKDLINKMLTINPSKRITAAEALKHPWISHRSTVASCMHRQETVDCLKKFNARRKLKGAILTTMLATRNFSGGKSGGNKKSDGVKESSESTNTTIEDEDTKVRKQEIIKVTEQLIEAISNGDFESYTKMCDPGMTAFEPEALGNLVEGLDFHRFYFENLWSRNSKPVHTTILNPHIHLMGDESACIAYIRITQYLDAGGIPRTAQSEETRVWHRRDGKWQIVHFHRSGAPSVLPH
# T15 sequence (O76039 whole entry): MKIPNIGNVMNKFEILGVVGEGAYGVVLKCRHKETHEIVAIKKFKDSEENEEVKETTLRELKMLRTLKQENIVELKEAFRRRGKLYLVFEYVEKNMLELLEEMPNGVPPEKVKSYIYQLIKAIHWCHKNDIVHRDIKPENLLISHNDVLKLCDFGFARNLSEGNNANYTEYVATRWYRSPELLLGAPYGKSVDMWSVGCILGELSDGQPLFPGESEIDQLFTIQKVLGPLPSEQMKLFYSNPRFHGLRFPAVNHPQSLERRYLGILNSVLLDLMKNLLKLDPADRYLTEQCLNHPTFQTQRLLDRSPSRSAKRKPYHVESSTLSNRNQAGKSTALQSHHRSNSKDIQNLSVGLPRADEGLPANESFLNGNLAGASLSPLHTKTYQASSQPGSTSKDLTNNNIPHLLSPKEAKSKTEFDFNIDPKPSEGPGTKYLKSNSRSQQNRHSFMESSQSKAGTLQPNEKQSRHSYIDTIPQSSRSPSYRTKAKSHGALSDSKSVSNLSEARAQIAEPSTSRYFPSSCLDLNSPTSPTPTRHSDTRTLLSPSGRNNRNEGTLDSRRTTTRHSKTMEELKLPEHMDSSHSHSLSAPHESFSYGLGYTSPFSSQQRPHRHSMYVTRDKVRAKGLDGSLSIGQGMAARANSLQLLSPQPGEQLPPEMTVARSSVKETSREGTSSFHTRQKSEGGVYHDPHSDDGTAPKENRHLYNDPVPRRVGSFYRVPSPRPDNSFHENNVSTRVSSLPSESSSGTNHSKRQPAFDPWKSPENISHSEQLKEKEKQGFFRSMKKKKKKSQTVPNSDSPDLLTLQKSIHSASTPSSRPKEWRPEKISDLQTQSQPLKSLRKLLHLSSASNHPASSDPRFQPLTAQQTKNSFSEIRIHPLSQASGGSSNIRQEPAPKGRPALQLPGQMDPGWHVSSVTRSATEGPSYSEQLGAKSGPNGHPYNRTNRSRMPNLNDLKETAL
# T10 sequence (Q9BWU1 whole entry): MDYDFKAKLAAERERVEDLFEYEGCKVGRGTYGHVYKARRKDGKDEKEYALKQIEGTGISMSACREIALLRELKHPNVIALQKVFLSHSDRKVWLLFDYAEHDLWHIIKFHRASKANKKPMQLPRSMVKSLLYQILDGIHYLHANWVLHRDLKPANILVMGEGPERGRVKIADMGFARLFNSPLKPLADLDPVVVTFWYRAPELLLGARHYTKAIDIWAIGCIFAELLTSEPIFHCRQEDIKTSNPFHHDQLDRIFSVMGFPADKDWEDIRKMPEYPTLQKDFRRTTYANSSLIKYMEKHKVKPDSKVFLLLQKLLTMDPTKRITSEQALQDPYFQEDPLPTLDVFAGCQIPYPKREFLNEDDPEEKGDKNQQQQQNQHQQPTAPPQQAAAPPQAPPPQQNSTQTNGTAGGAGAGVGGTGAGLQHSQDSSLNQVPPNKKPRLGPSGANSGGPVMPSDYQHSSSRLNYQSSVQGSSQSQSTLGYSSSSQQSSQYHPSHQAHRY
# T4 sequence (P9WI81 whole entry): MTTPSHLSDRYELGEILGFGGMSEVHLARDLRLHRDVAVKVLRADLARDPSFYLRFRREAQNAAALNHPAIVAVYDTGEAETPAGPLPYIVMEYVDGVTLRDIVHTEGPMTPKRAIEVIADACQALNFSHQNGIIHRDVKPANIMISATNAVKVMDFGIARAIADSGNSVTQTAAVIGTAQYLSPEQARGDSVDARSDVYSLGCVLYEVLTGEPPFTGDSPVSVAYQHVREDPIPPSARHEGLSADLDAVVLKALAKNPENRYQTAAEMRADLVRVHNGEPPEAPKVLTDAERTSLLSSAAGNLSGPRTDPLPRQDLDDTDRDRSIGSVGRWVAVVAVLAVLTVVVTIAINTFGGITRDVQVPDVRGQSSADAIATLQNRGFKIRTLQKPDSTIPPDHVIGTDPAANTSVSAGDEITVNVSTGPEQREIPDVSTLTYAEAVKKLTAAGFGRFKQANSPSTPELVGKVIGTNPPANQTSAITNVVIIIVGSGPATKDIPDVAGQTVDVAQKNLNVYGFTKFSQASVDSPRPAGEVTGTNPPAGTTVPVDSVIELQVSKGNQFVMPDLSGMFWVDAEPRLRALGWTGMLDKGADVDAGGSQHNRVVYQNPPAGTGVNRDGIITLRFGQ
# T18 sequence (Q9Y6E0 whole entry): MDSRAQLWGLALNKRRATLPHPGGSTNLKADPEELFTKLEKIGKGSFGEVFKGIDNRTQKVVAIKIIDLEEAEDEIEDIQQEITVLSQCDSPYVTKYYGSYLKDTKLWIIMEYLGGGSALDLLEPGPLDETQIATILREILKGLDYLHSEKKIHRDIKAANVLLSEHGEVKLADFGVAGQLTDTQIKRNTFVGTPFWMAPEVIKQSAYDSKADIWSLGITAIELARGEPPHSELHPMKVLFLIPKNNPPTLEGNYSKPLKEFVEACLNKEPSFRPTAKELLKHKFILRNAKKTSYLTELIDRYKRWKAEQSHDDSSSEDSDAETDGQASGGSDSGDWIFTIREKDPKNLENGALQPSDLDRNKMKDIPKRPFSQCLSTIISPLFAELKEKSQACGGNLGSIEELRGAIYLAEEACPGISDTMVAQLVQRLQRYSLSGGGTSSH
# T25 sequence (Q15759 whole entry): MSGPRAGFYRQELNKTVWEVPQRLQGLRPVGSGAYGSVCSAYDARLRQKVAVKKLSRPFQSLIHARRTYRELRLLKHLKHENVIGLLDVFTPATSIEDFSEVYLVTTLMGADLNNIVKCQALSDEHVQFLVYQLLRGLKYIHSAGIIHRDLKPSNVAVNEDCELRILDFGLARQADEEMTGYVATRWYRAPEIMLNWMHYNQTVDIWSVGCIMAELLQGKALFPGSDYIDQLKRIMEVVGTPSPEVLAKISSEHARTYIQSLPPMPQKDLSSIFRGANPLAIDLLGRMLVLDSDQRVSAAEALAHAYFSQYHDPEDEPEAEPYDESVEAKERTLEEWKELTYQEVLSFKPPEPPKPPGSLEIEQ
smiles,measurement,setting,value
CN1CCC(CNc2ccc3ncc(C(=O)Nc4cccc(OC(F)(F)F)c4)n3n2)CC1 [Cpd 2],percentage of CD133+ cells,PDAC2 cells,reduced
same,remaining binding at 1 µM,FLT1,100%
same,remaining binding at 1 µM,GAK,89%
same,remaining binding at 1 µM,AURKB,97%
same,remaining binding at 1 µM,PKNB(M.tuberculosis),90%
same,remaining binding at 1 µM,PLK3,97%
same,remaining binding at 1 µM,BTK,100%
same,remaining binding at 1 µM,JAK3(JH1D.-cat.),100%
same,remaining binding at 1 µM,CAMK2A,82%
same,remaining binding at 1 µM,RET,88%
same,remaining binding at 1 µM,CDK11,97%
same,remaining binding at 1 µM,ROS1,91%
same,remaining binding at 1 µM,CDK7,70%
same,remaining binding at 1 µM,RPS6KA5(KD2-C-t.),92%
same,remaining binding at 1 µM,CDKL3,91%
same,remaining binding at 1 µM,CDKL5,100%
same,remaining binding at 1 µM,DAPK2,89%
same,remaining binding at 1 µM,MST1,100%
same,remaining binding at 1 µM,MST3,96%
same,remaining binding at 1 µM,MYLK,100%
same,remaining binding at 1 µM,TRKC,70%
same,remaining binding at 1 µM,TTK,63%
same,remaining binding at 1 µM,EPHA6,86%
same,remaining binding at 1 µM,NEK6,100%
same,remaining binding at 1 µM,EPHB3,86%
same,remaining binding at 1 µM,p38-beta,100%
same,remaining binding at 1 µM,PIM1,5%
